Laboratory results: patent publication US4446047A, “Pleochroic anthraquinone dyes” (Imperial Chemical Industries PLC, priority 1981, dated 1984)

Experiments:
[1] = prior-art symmetrical dyes; cited from earlier work
[2] = prior-art symmetrical dyes; cited from earlier work; remark: listed apart in the source
[3] = prior-art symmetrical dyes; cited from earlier work; remark: listed apart in the source
[4] = Molar extinction coefficient of the dye in liquid crystal material; format: physicochemical
Source text: Solubility is, however, only one of the factors affecting the achievement of good contrast in a liquid crystal display, another factor is the extinction coefficient of the dye in the liquid crystal material. One useful indication of the ability of a dye to give good contrast is the product of the molar extinction coefficient and the solubility (in moles/liter).

[5] = Absorption maximum in liquid crystal medium E43; format: physicochemical; conditions: E43, 20° C., Table 4
Source text: Detection was by means of a u.v. source (254 nm) and samples, corresponding to all the peaks in the chromatogram, were collected.

[6] = Order parameter in other liquid crystal media (hosts) / liquid crystal materials; format: physicochemical; conditions: 20° C.
Experimental: (§1) In order to provide maximum contrast between the two states it is important that the guest molecules adopt as closely as possible the time averaged orientation of the host, however this is achieved only to a limited degree because of random thermal fluctuations. The degree to which the orientation varies from the ideal is measured by a quantity known as the order parameter S which is given by the following equation: […]
where cos^2 θ is a time averaged term and θ is the instantaneous angular orientation of the molecules with respect to the time averaged orientation of the host molecules. The determination of the value of the order parameter S is well understood in the art, see for example the paper, "A new absorptive mode reflective liquid crystal display device", by D. L. White and G. N. Taylor in the Journal of Applied Physics, 1974, 45, pages […] to 4723.
(§2) The properties of some of the dyes described in the Examples were also measured in other liquid crystal media (hosts) at 20° C., unless otherwise stated, and the results are set out in Table 5.
(§3) The liquid crystal materials referred to in Table 5 as Hosts 1 to 12 have the following compositions:
(§4) Host 1 is the liquid crystal material E7, available from BDH Chemicals Ltd, which includes the compounds:
(§5) Host 2 is the liquid crystal material ZLI 1132, available from E Merck & Co, which includes the following compounds:
(§6) Host 3 is the liquid crystal material ZLI 1695, available from E Merck & Co, Darmstadt, West Germany. This has a clearing point (nematic to isotropic transition temperature) of 72° C.
(§7) Host 4 is a mixture of alkyl-cyanophenyl-dioxanes containing n-propyl, n-pentyl and n-heptyl chains.
(§8) Host 5 is the liquid crystal material ZLI 1565, available from E Merck & Co. This has a clearing point of 85° C.
(§9) Host 6 is the liquid crystal material ZLI 1624, available from E Merck & Co. This has a clearing point of 87° C.
(§10) Host 8 is the liquid crystal material RO-TN 430 available from Hoffmann La Roche Co. This has a clearing point of 69° C.
(§11) Host 9 is a mixed bicyclo-octane liquid crystal material containing the following compounds:
(§12) Host 10 is a mixture of liquid crystal materials based mainly on cyanobiphenyls and available from BDH Chemicals Ltd under the name E61.
(§13) Host 11 is a mixture of liquid crystal materials based mainly on cyanobiphenyls and available from BDH Chemicals Ltd under the name E49.
(§14) Host 12 is a mixture of fluorobicyclo(2,2,2)octane esters having negative anisotropy and containing a mixture of two compounds of the following formula: […]

[7] = Solubility in other liquid crystal media (hosts) / liquid crystal materials; format: physicochemical
Experimental: as §2, §3, §4, §5, §6, §7, §8, §9, §10, §11, §12, §13, §14

[8] = Order parameter in liquid crystal medium E43; format: physicochemical; conditions: E43, 20° C., Table 4
Experimental: as §1
where cos^2 θ is a time averaged term and θ is the instantaneous angular orientation of the molecules with respect to the time averaged orientation of the host molecules.

molar extinction coefficient [4]	λmax [5] [nm]	Order Parameter ([6]; Host 1 (E7))	Order Parameter ([6]; Host 2 (ZLI 1132))	Order Parameter ([6]; Host 3 (ZLI 1695))	Order Parameter ([6]; Host 4 (alkyl-cyanophenyl-dioxanes mixture))	Order Parameter ([6]; Host 9 (mixed bicyclo-octane))	Order Parameter ([6]; Host 10 (E61))	Order Parameter ([6]; Host 11 (E49))	Order Parameter ([6]; Host 12 (fluorobicyclo(2,2,2)octane esters))	Solubility ([7]; Host 2 (ZLI 1132), 20° C.) [%]	Solubility ([7]; Host 3 (ZLI 1695), 20° C.) [%]	Solubility ([7]; Host 10 (E61), -2° C.) [%]	Solubility ([7]; Host 11 (E49), 20° C.) [%]	Solubility ([7]; Host 11 (E49), -2° C.) [%]	Solubility ([7]; Host 12 (fluorobicyclo(2,2,2)octane esters), 20° C.) [%]	Order Parameter [8]	Compound	solubility in the liquid crystal materials (in words) [1]	stability (in words) [2]	order parameters (in words) [3]
																	O=C1c2cccc(Sc3ccccc3)c2C(=O)c2cccc(Sc3ccccc3)c21 [1,5-bis(phenylthio)anthraquinone]	insufficient for practical purposes	adequate	high
11,000 cm^2.moles^-1	464	0.73	0.79	0.81	0.74	0.81	0.78	0.78	0.77	4.0	2.5	4.0	> 5.0	4.4	2.0	0.79	CC(C)(C)c1ccc(Sc2cccc3c2C(=O)c2cccc(Sc4ccccc4)c2C3=O)cc1 [Example 11, 1-phenylthio-5-(4-t-butylphenylthio)anthraquinone]			
